Source: US10723716B2, “Alpha-helix mimetics as modulators of Abeta self-assembly” (New York University, priority 2016, dated 2020)
“Also recorded” adds a separate entry of the source.

Legend:
Aβ40 [1] = biological target: T1, Aβ40 (Homo sapiens, UniProt P05067); test: Circular dichroism (CD) spectroscopy of Aβ40; format: biochemical; details: Aβ40, equimolar ratio
T1 construct: Cleavage of APP results in several Aβ isoforms; The predominant species are Aβ42 and Aβ40; purchased Anaspec (Fremont, Calif., USA)
Procedure: A second set of compounds was identified as potent inhibitors of Aβ aggregation. In contrast to ADH-41, they are negatively charged. […] The absorbance increased gradually from 0 to 6 h indicating an increase in the amount of soluble oligomers of Aβ42. […] A time-dependent increase in the amount of the A11-sensitive Aβ42 oligomeric structures was reflected in the progressive enhancement in the chemiluminescence intensity of the dots, which reached a maximum intensity around 6 h (FIG. 27g). The intensity decreased after 12 h, due to formation of fibers that are not sensitive to the A11 antibody. […] The far UV-CD spectrum of a sample of 20 μM Aβ40 transitioned from that of a random coil to a β-sheet conformation over 24 h (FIG. 27h).
(§1) A freshly prepared stock solution of Aβ42 (500 μM) was diluted to 15 μM in phosphate buffer for CD measurements. The spectra of Aβ42 in the absence and presence of the compounds of the invention were recorded at 0.5 nm intervals from 190 to 260 nm with an averaging time of 10 sec. and an average of three repeats on a Aviv Stopped Flow CD Spectropolarimeter (Model 202SF).

Aβ42 [2] = biological target: T2, Aβ42 (Homo sapiens, UniProt P05067); test: PICUP SDS-PAGE of Aβ42 oligomers; format: biochemical; details: 5 μM Aβ42, equimolar ratio
T2 construct: Cleavage of APP results in several Aβ isoforms; The predominant species are Aβ42 and Aβ40; purchased Anaspec (Fremont, Calif., USA)
Procedure: The reaction mixture was irradiated for 30 s using filament lamp (power=150 W) by keeping it 20 cm away from the bottom of the reaction tubes. The cross-linking reaction was then quenched immediately with dithiothreitol (1 M, 1 μL, Sigma Aldrich, St. Louis, Mo., USA). The samples were incubated on ice for 15 min. followed by the addition of SDS buffer. The samples were heated at 90° C. for 5 min. and then centrifuged. […] The samples were applied to Nu-PAGE electrophoresis in 12% Bis-Tris gels with SDS-PAGE buffer. The protein samples were stained with a silver stain kit from Sigma Aldrich (St. Louis, Mo., USA).

Aβ40 [3] = biological target: T1, Aβ40; test: ThT-based kinetic assay of Aβ40 aggregation; format: biochemical; details: equimolar ratio
Procedure: Kinetic assays were conducted on a FlexStation 3 Multi-Mode Microplate reader from Molecular Devices (Sunnyvale, Calif., USA). Experiments were conducted in triplicate in a 96-well plate with a final volume of 200 μL per well. Every measurement was an average of 50 readings. The aggregation of an amyloidogenic peptide (Aβ40, Aβ42, or IAPP) was initiated by the addition of the peptide from a stock solution (in DMSO, 0.5-1 mM) to phosphate buffer. The final concentration of each peptide was different based on their aggregation. The stoichiometry of ThT dye for each peptide was 0.5:1 (ThT:peptide). Peptide aggregation was monitored by ThT fluorescence (λex=445 nm and λem=485 nm). The blank sample contained all the components of the peptide samples except the peptide. The sample data were processed by subtracting the fluorescence of the blank sample. The fluorescence intensity data was then normalized by setting the maximum value to 1.
Kinetic assays in the presence of the compounds of the invention were conducted under the same conditions. The small molecules were added from a stock solution (1 mM or 10 mM in DMSO) to keep the final concentration of DMSO less than 1.0% (v/v). […]
Kinetic profiles were processed using Origin (version 9.1). […] Each run was fit independently to extract the t50 (time required to reach 50% of the maximum fluorescence intensity). […]

Aβ42 [4] = biological target: T2, Aβ42; test: Circular dichroism (CD) spectroscopy of Aβ42; format: biochemical; details: 15 μM Aβ42, equimolar ratio, after 24 h
Procedure: as §1

Aβ40 [5] = biological target: T1, Aβ40; test: Seed-catalyzed kinetic assay, Aβ40; format: biochemical; details: 20 μM Aβ40, 10% seeds, equimolar ratio
Procedure: Seeds of Aβ40/Aβ42 were prepared by incubating 200 μM of Aβ40/Aβ42 in phosphate buffer at room temperature. The samples were aged for 48 h and the formation of fibers was confirmed by TEM and ThT before storage at −20° C. until use. For the aggregation of Aβ40, 10% (based on the monomeric Aβ40, v/v) seeds were added along with ThT in phosphate buffer to the 96-well plate. The aggregation was initiated by the addition of monomeric Aβ40 followed by gentle mixing. The process was similar in the case of Aβ42 except that the seed concentration was 5% (based on the monomeric Aβ42, v/v).
The seeds were generated by aging 200 μM Aβ peptides for 48 h in phosphate buffer with occasional vortexing. The concentration of seeds was calculated based on the monomeric concentration of Aβ.

N2a cells = test: Confocal fluorescence microscopy, cellular uptake; format: cell-based, mouse; details: 24 h incubation
Procedure: N2a cells were seeded at a density of 5×10^4 cells/well in 500 μL complete medium in 4-chambered 35 mm glass bottom Cellview cell culture dishes (Greiner Bio-One, Monroe, N.C., USA). […] For mitochondrial colocalization experiments, 50 nM MitoTracker Red FM or MitoTracker Green FM (Thermo Fisher Scientific, Waltham, Mass., USA) was added to the chambers and incubated for 15 min. Thereafter, the medium was removed, the cells were washed with PBS to remove any extracellular peptide, inhibitor or organelle marker, and 300 μL phenol red- and serum-free medium was added to each chambers of the cell culture dish. Imaging was done on an Olympus Fluoview FV1000MPE Confocal/2—Photon microscope, using a 63× Plan-Apo/1.3 NA oil immersion objective with DIC capability. Image processing was done using the Fiji image processing software according to known methodology (Schindelin, J.; Arganda-Carreras, I.; Frise, E.; Kaynig, V.; Longair, M.; Pietzsch, T.; Preibisch, S.; Rueden, C.; Saalfeld, S.; Schmid, B.; Tinevez, J. Y.; White, D. J.; Hartenstein, V.; Eliceiri, K.; Tomancak, P.; Cardona, A. Nat. Methods 2012, 9, 676-682).

Aβ40 [6] = biological target: T1, Aβ40; test: Isothermal titration calorimetry (ITC); format: binding
Procedure: ITC experiments were performed in a NANO-ITC (TA instruments, New Castle, Del., USA). […] The heat associated with each injection was calculated by integrating each heat burst curve using NanoAnalyze software (New Castle, Del., USA). […] No parameter was constrained during the fitting. The data were extracted from the best fit after 10,000 iterations.

T2 sequence (P05067 672-713 limits assumed): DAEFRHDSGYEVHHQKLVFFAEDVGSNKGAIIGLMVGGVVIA
T1 sequence (P05067 672-711 limits assumed): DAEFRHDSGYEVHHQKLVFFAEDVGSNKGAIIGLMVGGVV

SMILES	β-sheet formation of Aβ40 (far UV-CD) (Aβ40 [1])	conformation of Aβ40 (far UV-CD) (Aβ40 [1]; stable after 48 h)	higher order oligomers of Aβ42 (PICUP, SDS-PAGE) (Aβ42 [2]; 24 h and 36 h)	higher order oligomers of Aβ42 (PICUP, SDS-PAGE) (Aβ42 [2]; up to 12 h)	effect on Aβ40 aggregation (ThT) (Aβ40 [3])	β-sheet formation of Aβ42 (far UV-CD) (Aβ42 [4])	effect on seed-catalyzed Aβ40 fibrillation (Aβ40 [5])	cell permeability (N2a cells)	Kd (Aβ40 [6]) [nM]
COC(=O)c1ccc(NC(=O)c2ccc(NC(=O)c3ccc(NC(=O)c4ccc([N+](=O)[O-])c(OCC(C)C)n4)c(OCc4ccccc4)n3)c(OCC(=O)O)n2)c(OCC(=O)O)n1 [ADH-31]	no β-sheet formation was observed	adopts an α-helical conformation							
COC(=O)c1ccc(NC(=O)c2ccc(NC(=O)c3ccc([N+](=O)[O-])c(OCc4ccccc4)n3)c(OCCCN)n2)c(OCCCN)n1 [ADH-41]			sparse populations	no higher order oligomers	decreased significantly; also recorded: completely arrested	No formation of β-sheet structure	completely arrested	good cell permeability	700 ± 100
